Experimental data from US12091411B2, “IRAK degraders and uses thereof” (Kymera Therapeutics, Inc., priority 2022, dated 2024).
Where two headings read alike, the source gives them in different places.

Biological target: T1, IRAK4 (Homo sapiens, UniProt Q9NWZ3)
T1 construct: Degradation of IRAK4 in OCI-LY10 was quantitatively measured using Meso Scale Discovery technology; endogenous in cells; host or cells: OCI-LY10
T1 sequence (Q9NWZ3 1-460): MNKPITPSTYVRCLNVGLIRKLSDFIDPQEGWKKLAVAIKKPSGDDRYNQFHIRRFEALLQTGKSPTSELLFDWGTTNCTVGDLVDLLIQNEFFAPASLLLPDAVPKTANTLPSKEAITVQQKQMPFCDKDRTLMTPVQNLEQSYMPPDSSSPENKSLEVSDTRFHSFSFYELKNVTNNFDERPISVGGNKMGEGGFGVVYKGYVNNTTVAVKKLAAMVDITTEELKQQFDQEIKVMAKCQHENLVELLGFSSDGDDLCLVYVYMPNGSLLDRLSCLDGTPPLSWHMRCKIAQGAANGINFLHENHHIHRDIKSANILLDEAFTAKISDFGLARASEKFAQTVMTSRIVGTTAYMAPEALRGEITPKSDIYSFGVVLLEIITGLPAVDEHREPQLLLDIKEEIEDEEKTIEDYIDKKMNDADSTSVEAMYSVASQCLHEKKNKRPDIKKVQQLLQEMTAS
Experiment: IRAK4 MSD Degradation in OCI-LY10
Type: cell-based
Details: OCI-LY10 cells, MSD
Summary of the method: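 OCI-LY10 cells exposed to 8-point 1:3 compound series (top 1 to 10 μM) for 4 to 24 h at 37 °C, 5% CO2. Lysate IRAK4 quantified by MSD sandwich immunoassay. DC50 from three-parameter logistic fit, binned A (<0.01 μM) to D (>0.2 μM or not tested).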

[1] = 4 hrs incubation, read-out: IRAK4 degradation in OCI-LY10 at 4 hrs: DC50
[2] = 24 hrs incubation, read-out: IRAK4 degradation in OCI-LY10 at 24 hrs: DC50

Row | SMILES | DC50 [1] [nM] | DC50 [2] [nM]
1 | Cn1c(=O)n(C2CCC(=O)NC2=O)c2cccc(C#CCN3CCN(C[C@H]4CC[C@H](n5cc(NC(=O)c6cnn7ccc(C8CCOCC8)nc67)c(C(F)F)n5)CC4)CC3)c21 (stereo partly shown) [I-298] | > 200 | < 10
2 | Cn1c(=O)n(C2CCC(=O)NC2=O)c2cccc(C#CCN3CCN(C[C@H]4CC[C@H](n5cc(NC(=O)c6cnn7ccc(N8CCNCC8)nc67)c(C(F)F)n5)CC4)CC3)c21 (stereo partly shown) [I-299] | > 200 | < 10
3 | CN1CCN(c2ccn3ncc(C(=O)Nc4cn([C@H]5CC[C@H](CN6CCN(CC#Cc7cccc8c7n(C)c(=O)n8C7CCC(=O)NC7=O)CC6)CC5)nc4C(F)F)c3n2)CC1 (stereo partly shown) [I-300] | > 200 | < 10
4 | Cn1c(=O)n(C2CCC(=O)NC2=O)c2cccc(C#CCN3CCN(C[C@H]4CC[C@H](n5cc(NC(=O)c6cnn7ccc(C8COCCN8)nc67)c(C(F)F)n5)CC4)CC3)c21 (stereo partly shown) [I-301] | > 200 | > 200
5 | CN1CCOCC1c1ccn2ncc(C(=O)Nc3cn([C@H]4CC[C@H](CN5CCN(CC#Cc6cccc7c6n(C)c(=O)n7C6CCC(=O)NC6=O)CC5)CC4)nc3C(F)F)c2n1 (stereo partly shown) [I-302] | > 200 | > 200
6 | Cn1c(=O)n(C2CCC(=O)NC2=O)c2cccc(C#CCOC3CCN(C[C@H]4CC[C@H](n5cc(NC(=O)c6cnn7ccc(N8CCSCC8)nc67)c(C(F)F)n5)CC4)CC3)c21 (stereo partly shown) [I-303] | > 200 | < 10
7 | Cn1c(=O)n(C2CCC(=O)NC2=O)c2cccc(C#CCOC3CCN(C[C@H]4CC[C@H](n5cc(NC(=O)c6cnn7ccc(N8CCS(=O)(=O)CC8)nc67)c(C(F)F)n5)CC4)CC3)c21 (stereo partly shown) [I-304] | > 200 | < 10
8 | Cn1c(=O)n(C2CCC(=O)NC2=O)c2cccc(C#CCOC3CCN(C[C@H]4CC[C@H](n5cc(NC(=O)c6cnn7ccc(N8CCC9(CC8)COC9)nc67)c(C(F)F)n5)CC4)CC3)c21 (stereo partly shown) [I-305] | > 200 | > 200
9 | CN1CC2(CCN(c3ccn4ncc(C(=O)Nc5cn([C@H]6CC[C@H](CN7CCC(OCC#Cc8cccc9c8n(C)c(=O)n9C8CCC(=O)NC8=O)CC7)CC6)nc5C(F)F)c4n3)CC2)C1 (stereo partly shown) [I-306] | > 200 | > 200
10 | Cn1c(=O)n(C2CCC(=O)NC2=O)c2cccc(C#CCOC3CCN(C[C@H]4CC[C@H](n5cc(NC(=O)c6cnn7ccc(C8CCOCC8)nc67)c(C(F)F)n5)CC4)CC3)c21 (stereo partly shown) [I-307] | > 200 | < 10
11 | Cn1c(=O)n(C2CCC(=O)NC2=O)c2cccc(C#CCOC3CCN(C[C@H]4CC[C@H](n5cc(NC(=O)c6cnn7ccc(N8CCNCC8)nc67)c(C(F)F)n5)CC4)CC3)c21 (stereo partly shown) [I-308] | > 200 | < 10
12 | CN1CCN(c2ccn3ncc(C(=O)Nc4cn([C@H]5CC[C@H](CN6CCC(OCC#Cc7cccc8c7n(C)c(=O)n8C7CCC(=O)NC7=O)CC6)CC5)nc4C(F)F)c3n2)CC1 (stereo partly shown) [I-309] | > 200 | < 10
13 | Cn1c(=O)n(C2CCC(=O)NC2=O)c2cccc(C#CCOC3CCN(C[C@H]4CC[C@H](n5cc(NC(=O)c6cnn7ccc(C8COCCN8)nc67)c(C(F)F)n5)CC4)CC3)c21 (stereo partly shown) [I-310] | > 200 | > 200
14 | CN1CCOCC1c1ccn2ncc(C(=O)Nc3cn([C@H]4CC[C@H](CN5CCC(OCC#Cc6cccc7c6n(C)c(=O)n7C6CCC(=O)NC6=O)CC5)CC4)nc3C(F)F)c2n1 (stereo partly shown) [I-311] | > 200 | > 200
15 | Cn1c(=O)n(C2CCC(=O)NC2=O)c2cccc(N3CCC(N(CC(F)F)C[C@H]4CC[C@H](n5cc(NC(=O)c6cnn7cccnc67)c(C(F)F)n5)CC4)CC3)c21 (stereo partly shown) [I-312] | > 200 | > 200
16 | Cn1c(=O)n(C2CCC(=O)NC2=O)c2cccc(N3CCC(N(CC(F)(F)F)C[C@H]4CC[C@H](n5cc(NC(=O)c6cnn7cccnc67)c(C(F)F)n5)CC4)CC3)c21 (stereo partly shown) [I-313] | > 200 | > 200
17 | CN(Cc1ccc(-n2cc(NC(=O)c3cnn4cccnc34)c(C(F)F)n2)cc1)C1CCN(c2cccc3c2n(C)c(=O)n3C2CCC(=O)NC2=O)CC1 (stereo not shown) [I-314] | > 200 | > 200
18 | Cn1c(=O)n(C2CCC(=O)NC2=O)c2cccc(C#CCN3CCN(C[C@H]4CC[C@H](n5cc(NC(=O)c6cnn7ccc(N8CC9(COC9)C8)nc67)c(C(F)F)n5)CC4)CC3)c21 (stereo partly shown) [I-315] | > 200 | < 10
19 | Cn1c(=O)n(C2CCC(=O)NC2=O)c2cccc(C#CCN3CCN(C[C@H]4CC[C@H](n5cc(NC(=O)c6cnn7ccc(N8CC9(CCOCC9)C8)nc67)c(C(F)F)n5)CC4)CC3)c21 (stereo partly shown) [I-316] | > 200 | 10 to 100

Row | SMILES | DC50 [1] [nM] | DC50 [2] [nM]
20 | Cn1c(=O)n(C2CCC(=O)NC2=O)c2cccc(C#CCN3CCN(C[C@H]4CC[C@H](n5cc(NC(=O)c6cnn7ccc(N8CC9(CCOC9)C8)nc67)c(C(F)F)n5)CC4)CC3)c21 (stereo partly shown) [I-317] | > 200 | > 200
21 | Cn1c(=O)n(C2CCC(=O)NC2=O)c2cccc(C#CCN3CCN(C[C@H]4CC[C@H](n5cc(NC(=O)c6cnn7ccc(N8CC9(CCCOC9)C8)nc67)c(C(F)F)n5)CC4)CC3)c21 (stereo partly shown) [I-318] | 10 to 100 | > 200
22 | Cn1c(=O)n(C2CCC(=O)NC2=O)c2cccc(C#CCN3CCN(C[C@H]4CC[C@H](n5cc(NC(=O)c6cnn7ccc(N8CCC9(CCOCC9)C8)nc67)c(C(F)F)n5)CC4)CC3)c21 (stereo partly shown) [I-319] | > 200 | < 10
23 | Cn1c(=O)n(C2CCC(=O)NC2=O)c2cccc(C#CCN3CCN(C[C@H]4CC[C@H](n5cc(NC(=O)c6cnn7ccc(N8CCC9(COC9)C8)nc67)c(C(F)F)n5)CC4)CC3)c21 (stereo partly shown) [I-320] | < 10 | > 200
24 | Cn1c(=O)n(C2CCC(=O)NC2=O)c2cccc(C#CCN3CCN(C[C@H]4CC[C@H](n5cc(NC(=O)c6cnn7ccc(N8CCC9(CCOC9)C8)nc67)c(C(F)F)n5)CC4)CC3)c21 (stereo partly shown) [I-321] | > 200 | < 10
25 | Cn1c(=O)n(C2CCC(=O)NC2=O)c2cccc(C#CCN3CCN(C[C@H]4CC[C@H](n5cc(NC(=O)c6cnn7ccc(N8CCOC(C(F)(F)F)C8)nc67)c(C(F)F)n5)CC4)CC3)c21 (stereo partly shown) [I-322] | > 200 | > 200
26 | Cn1c(=O)n(C2CCC(=O)NC2=O)c2cccc(C#CCN3CCN(C[C@H]4CC[C@H](n5cc(NC(=O)c6cnn7ccc(N8CC9COCC9C8)nc67)c(C(F)F)n5)CC4)CC3)c21 (stereo partly shown) [I-323] | > 200 | > 200
27 | Cn1c(=O)n(C2CCC(=O)NC2=O)c2cccc(C#CCN3CCN(C[C@H]4CC[C@H](n5cc(NC(=O)c6cnn7ccc(N8CCOC(F)(F)C8)nc67)c(C(F)F)n5)CC4)CC3)c21 (stereo partly shown) [I-324] | > 200 | > 200
28 | Cn1c(=O)n(C2CCC(=O)NC2=O)c2cccc(C#CCOC3CCN(C[C@H]4CC[C@H](n5cc(NC(=O)c6cnn7ccc(N8CC9(COC9)C8)nc67)c(C(F)F)n5)CC4)CC3)c21 (stereo partly shown) [I-325] | > 200 | > 200
29 | Cn1c(=O)n(C2CCC(=O)NC2=O)c2cccc(C#CCOC3CCN(C[C@H]4CC[C@H](n5cc(NC(=O)c6cnn7ccc(N8CC9(CCOCC9)C8)nc67)c(C(F)F)n5)CC4)CC3)c21 (stereo partly shown) [I-326] | 10 to 100 | > 200
30 | Cn1c(=O)n(C2CCC(=O)NC2=O)c2cccc(C#CCOC3CCN(C[C@H]4CC[C@H](n5cc(NC(=O)c6cnn7ccc(N8CC9(CCOC9)C8)nc67)c(C(F)F)n5)CC4)CC3)c21 (stereo partly shown) [I-327] | > 200 | < 10
31 | Cn1c(=O)n(C2CCC(=O)NC2=O)c2cccc(C#CCOC3CCN(C[C@H]4CC[C@H](n5cc(NC(=O)c6cnn7ccc(N8CC9(CCCOC9)C8)nc67)c(C(F)F)n5)CC4)CC3)c21 (stereo partly shown) [I-328] | 10 to 100 | > 200
32 | Cn1c(=O)n(C2CCC(=O)NC2=O)c2cccc(C#CCOC3CCN(C[C@H]4CC[C@H](n5cc(NC(=O)c6cnn7ccc(N8CCC9(CCOCC9)C8)nc67)c(C(F)F)n5)CC4)CC3)c21 (stereo partly shown) [I-329] | 10 to 100 | > 200
33 | Cn1c(=O)n(C2CCC(=O)NC2=O)c2cccc(C#CCOC3CCN(C[C@H]4CC[C@H](n5cc(NC(=O)c6cnn7ccc(N8CCC9(COC9)C8)nc67)c(C(F)F)n5)CC4)CC3)c21 (stereo partly shown) [I-330] | > 200 | > 200
34 | Cn1c(=O)n(C2CCC(=O)NC2=O)c2cccc(C#CCOC3CCN(C[C@H]4CC[C@H](n5cc(NC(=O)c6cnn7ccc(N8CCC9(CCOC9)C8)nc67)c(C(F)F)n5)CC4)CC3)c21 (stereo partly shown) [I-331] | 10 to 100 | > 200
35 | Cn1c(=O)n(C2CCC(=O)NC2=O)c2cccc(C#CCOC3CCN(C[C@H]4CC[C@H](n5cc(NC(=O)c6cnn7ccc(N8CC9COCC9C8)nc67)c(C(F)F)n5)CC4)CC3)c21 (stereo partly shown) [I-332] | < 10 | > 200
36 | Cn1c(=O)n(C2CCC(=O)NC2=O)c2cccc(C#CCOC3CCN(C[C@H]4CC[C@H](n5cc(NC(=O)c6cnn7ccc(N8CCOC(C(F)(F)F)C8)nc67)c(C(F)F)n5)CC4)CC3)c21 (stereo partly shown) [I-333] | > 200 | > 200
37 | Cn1c(=O)n(C2CCC(=O)NC2=O)c2cccc(C#CCOC3CCN(C[C@H]4CC[C@H](n5cc(NC(=O)c6cnn7ccc(N8CCOC(F)(F)C8)nc67)c(C(F)F)n5)CC4)CC3)c21 (stereo partly shown) [I-334] | > 200 | > 200
38 | Cn1c(=O)n(C2CCC(=O)NC2=O)c2cccc(C#CCN3CCN(C[C@H]4CC[C@H](n5cc(NC(=O)c6cccc7ccc(N8CCC8)nc67)c(C(F)F)n5)CC4)CC3)c21 (stereo partly shown) [I-335] | > 200 | > 200
